According to PubChem BioAssay (NCI):
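How tested: cells in 96-well plates exposed to compound for 48 hours at five concentrations. The concentration for 50% growth inhibition is given as GI50. At the TGI there is no net growth.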

Columns and labels:
Assay in all cases: NCI tumour cell line growth inhibition, 48 h
NCI-H226 lung = system: NCI-H226 lung
A549 NSCLC = system: A549 NSCLC
MALME-3M melanoma = system: MALME-3M melanoma
OVCAR-3 ovarian = system: OVCAR-3 ovarian
SR leukemia = system: SR leukemia
HT29 colon = system: HT29 colon
IGROV1 ovarian = system: IGROV1 ovarian
UACC-62 melanoma = system: UACC-62 melanoma
OVCAR-4 ovarian = system: OVCAR-4 ovarian
HCT-116 colon = system: HCT-116 colon

Compound | TGI (NCI-H226 lung) [µM] | TGI (A549 NSCLC) [µM] | TGI (MALME-3M melanoma) [µM] | TGI (OVCAR-3 ovarian) [µM] | TGI (SR leukemia) [µM] | TGI (HT29 colon) [µM] | TGI (IGROV1 ovarian) [µM] | TGI (UACC-62 melanoma) [µM] | TGI (OVCAR-4 ovarian) [µM] | TGI (HCT-116 colon) [µM] | GI50 (NCI-H226 lung) [µM] | GI50 (A549 NSCLC) [µM] | GI50 (MALME-3M melanoma) [µM] | GI50 (OVCAR-3 ovarian) [µM] | GI50 (SR leukemia) [µM] | GI50 (HT29 colon) [µM] | GI50 (IGROV1 ovarian) [µM] | GI50 (UACC-62 melanoma) [µM] | GI50 (OVCAR-4 ovarian) [µM] | GI50 (HCT-116 colon) [µM]
O=CC1CCCc2ccccc21 (stereo not given) | > 100 | > 100 | > 100 | > 100 | > 100 | > 100 | > 100 | > 100 | > 100 | > 77.2 | – | – | – | – | – | – | – | – | – | –
Cc1cc(Cl)ccc1NC(=O)CC/C(CC(=O)C(C)C)=N\NC(=O)C[n+]1ccccc1 | > 100 | > 100 | > 100 | > 100 | > 100 | > 100 | > 100 | > 100 | > 100 | > 100 | – | – | – | – | – | – | – | – | – | –
COC(=O)CCC(NC(=S)N/N=C/c1ccco1)C(=O)OC (stereo not given) | > 100 | > 100 | > 100 | > 100 | > 100 | > 100 | > 100 | > 100 | > 100 | > 100 | – | – | – | – | – | – | – | – | – | –
O=C(/C=C/c1ccc([N+](=O)[O-])cc1)c1ccc2c3c(cccc13)CC2 | > 100 | > 100 | > 100 | 10.1 | 24.9 | > 100 | 53.2 | > 100 | > 100 | 25.7 | > 37.2 | 10.3 | > 64.2 | 3 | 2.02 | 5.05 | 4.36 | > 48.4 | 13.5 | 4.33
COC(=O)C1=CC2C(=O)OC1CC2C#N (stereo not given) | > 100 | > 100 | > 100 | > 100 | > 100 | > 100 | > 100 | > 100 | > 100 | > 100 | – | – | – | – | – | – | – | – | – | –
COc1ccc(C(=O)c2cc3c(N)c(C(=O)Nc4cccc5ccccc45)sc3nc2C)cc1 | > 50 | > 50 | > 50 | > 50 | > 50 | > 50 | > 50 | > 50 | > 50 | > 18.9 | 0.332 | 0.266 | 0.378 | 0.156 | 0.161 | 0.183 | 0.268 | 0.285 | 1.15 | 0.18
Cc1ccc(S(=O)(=O)Nc2cccc3[nH]c(C(F)(F)F)nc23)cc1 | 29.1 | > 45.8 | 37.3 | > 100 | 22 | 7.31 | > 100 | > 54 | 80.9 | > 100 | 3.73 | 0.653 | 1.95 | 0.426 | 0.383 | 0.351 | 0.832 | 0.62 | 1.54 | 0.414
CCc1ccc(NC(=O)COC(=O)c2cc([N+](=O)[O-])ccc2Sc2nnnn2C)cc1 | 36.1 | 53.1 | > 100 | 25.4 | > 100 | 29.3 | 95.7 | 48 | 26.9 | 20.2 | 17 | 19.7 | 24.2 | 11.7 | 4.05 | 11.1 | 24.3 | 15.2 | 12.9 | 6.76
CCOc1ccccc1N=Nc1c(C)[nH]n(-c2nc(-c3ccccc3)cs2)c1=O | > 100 | > 100 | > 100 | > 100 | > 100 | > 100 | > 85.3 | > 100 | > 84.5 | > 100 | 32.5 | 49.9 | 60.9 | 57.7 | > 100 | 97.9 | 25.8 | 35.6 | 25 | 52.3
COc1ccc(OC)c(NC(=O)CCC/C(CC(=O)c2ccc(O)c(OC)c2)=N\Nc2ccc([N+](=O)[O-])cc2)c1 | > 100 | > 100 | > 100 | > 100 | > 100 | > 100 | > 100 | > 100 | > 100 | > 100 | – | – | – | – | – | – | – | – | – | –
CC1=C2C(=CC(C)(C)C2O)C(=O)C(C)(O)C12CC2 (stereo not given) | 0.152 | 0.277 | 0.0337 | 0.0494 | 0.128 | 0.0311 | 0.132 | 0.0324 | 0.0209 | 0.188 | – | – | – | – | – | – | – | – | – | –
COC(=O)C1=C(c2cc(OC)c(OC)c(OC)c2)OC(c2ccc(OC)c(OC)c2)C1 (stereo not given) | > 100 | > 100 | > 100 | > 100 | > 100 | > 100 | > 100 | > 100 | > 100 | > 100 | – | – | – | – | – | – | – | – | – | –
COc1c(Cl)cc(NC(=S)C#N)cc1Cl | 57.6 | > 100 | 59.6 | > 62.8 | > 92.2 | > 65.8 | > 82.6 | 30.8 | 97.9 | 31.6 | – | – | – | – | – | – | – | – | – | –
CC1(C)[C@@H](OC(N)=O)[C@H]2O[C@H]2[C@]2(CO)[C@H]3CC[C@]4(C)[C@@H](c5ccc(=O)oc5)[C@@H](Cl)C[C@]4(O)C3=CC[C@@H]12 | 0.0152 | 0.0088 | 0.0149 | 0.014 | 0.0195 | 0.0238 | 0.0938 | 0.0332 | 0.0157 | 0.0262 | 0.0061 | 0.00469 | 0.00616 | 0.00618 | 0.00681 | 0.00796 | 0.0116 | 0.00892 | 0.00545 | 0.00709
CCc1cccc(C)c1NC(=O)C(=O)Cc1nc2ccccc2s1 | > 100 | > 100 | > 100 | > 100 | > 100 | > 100 | 20.8 | > 100 | > 100 | > 100 | – | – | – | – | – | – | – | – | – | –
C=C1C(=O)OC2C1C(OC(=O)/C(C)=C/C)CC(O)(CCl)C1C(O)C3OC3(C)C21O (stereo not given) | > 50 | > 50 | 10.6 | > 50 | > 50 | > 50 | > 50 | > 50 | > 50 | 23.7 | – | – | – | – | – | – | – | – | – | –
O=C(c1ccccc1)c1cccc(C(=O)c2ccccc2)c1 | > 100 | > 100 | > 100 | > 100 | > 100 | > 100 | > 100 | > 100 | > 100 | > 100 | – | – | – | – | – | – | – | – | – | –
